Results on one compound are retold here after publication PMC7317212 (Chemmedchem, 2020).

The target in test [1] is T1, mGAT1 (Mus musculus, UniProt P31648).
T1 construct: expressed in transfected cells; host or cells: HEK293
In words: [^3H]GABA uptake assay, HEK293 cells expressing mGAT1. As to conditions: [^3H]GABA uptake; pIC50±SEM. The format is cell-based. Summed up: (§1)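 HEK293 cells expressing mouse GATs preincubated 25 min at 37 °C with compound in Krebs buffer pH 7.2, then [3H]GABA added: 8 nM plus 32 nM unlabeled for 4 min (mGAT1/3/4), 20 nM plus 20 nM for 10 min (mGAT2). Filtration, scintillation counting; nonspecific uptake with 10 mM (mGAT1/3/4) or 100 mM GABA (mGAT2); pIC50.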

Test [2] deals with T2, mGAT3 (Mus musculus, UniProt P31649).
T2 construct: expressed in transfected cells; host or cells: HEK293
T2 sequence (P31649 1-602): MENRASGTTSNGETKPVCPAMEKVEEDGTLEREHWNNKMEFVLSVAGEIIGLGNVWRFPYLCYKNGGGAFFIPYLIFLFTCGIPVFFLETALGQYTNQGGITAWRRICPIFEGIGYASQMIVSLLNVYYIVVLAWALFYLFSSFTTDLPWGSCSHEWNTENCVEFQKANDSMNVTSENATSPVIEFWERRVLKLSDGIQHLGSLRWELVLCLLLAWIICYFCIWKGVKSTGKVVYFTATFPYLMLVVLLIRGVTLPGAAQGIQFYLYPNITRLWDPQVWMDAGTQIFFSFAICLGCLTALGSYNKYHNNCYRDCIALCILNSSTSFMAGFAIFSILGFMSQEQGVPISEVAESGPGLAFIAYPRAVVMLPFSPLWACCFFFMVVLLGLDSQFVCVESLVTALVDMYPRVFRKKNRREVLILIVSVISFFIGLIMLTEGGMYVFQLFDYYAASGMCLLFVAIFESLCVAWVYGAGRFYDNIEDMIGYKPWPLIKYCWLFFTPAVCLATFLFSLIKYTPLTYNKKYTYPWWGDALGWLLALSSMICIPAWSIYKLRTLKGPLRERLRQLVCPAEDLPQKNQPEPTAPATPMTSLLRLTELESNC
In words: [^3H]GABA uptake assay, HEK293 cells expressing mGAT3. The class given is cell-based. To be noted: [^3H]GABA uptake; pIC50±SEM. The procedure, abridged: as §1

Test [3] addresses T3, mGAT4 (Mus musculus, UniProt P31650).
T3 construct: expressed in transfected cells; host or cells: HEK293
T3 sequence (P31650 1-627): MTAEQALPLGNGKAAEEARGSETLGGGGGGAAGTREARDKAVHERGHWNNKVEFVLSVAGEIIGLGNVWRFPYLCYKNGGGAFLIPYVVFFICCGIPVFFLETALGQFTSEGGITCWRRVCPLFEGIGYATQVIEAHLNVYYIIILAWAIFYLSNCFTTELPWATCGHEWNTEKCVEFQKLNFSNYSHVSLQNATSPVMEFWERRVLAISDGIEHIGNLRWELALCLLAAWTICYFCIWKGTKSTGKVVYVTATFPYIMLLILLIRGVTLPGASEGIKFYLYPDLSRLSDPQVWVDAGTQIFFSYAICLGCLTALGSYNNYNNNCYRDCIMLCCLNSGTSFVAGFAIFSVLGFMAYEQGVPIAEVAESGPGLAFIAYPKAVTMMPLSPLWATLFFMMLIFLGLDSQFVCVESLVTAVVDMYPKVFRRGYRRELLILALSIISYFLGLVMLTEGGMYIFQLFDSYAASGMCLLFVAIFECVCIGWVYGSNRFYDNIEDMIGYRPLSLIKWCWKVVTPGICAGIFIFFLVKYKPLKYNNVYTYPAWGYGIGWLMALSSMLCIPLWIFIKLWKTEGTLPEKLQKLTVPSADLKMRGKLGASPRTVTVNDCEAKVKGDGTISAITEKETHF
In words: [^3H]GABA uptake assay, HEK293 cells expressing mGAT4. As to conditions: [^3H]GABA uptake; pIC50±SEM. The class given is cell-based. Summed up:
as §1

The target in test [4] is T1, mGAT1. In words: MS Binding Assay with NO711 as native MS marker. As to conditions: MS Binding Assay, NO711 marker; pKi±SEM; read-out: pK i mGAT1 (converted). The procedure, abridged: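 Competitive MS binding using membranes from HEK293 cells stably expressing mGAT1, with 10 nM unlabeled NO711 as marker and compounds at 7 concentrations. Nonspecific binding defined with 100 mM GABA. Bound NO711 eluted after filtration and quantified by LC-ESI-MS/MS against [2H10]NO711; Ki derived.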

Molecules are shown by their SMILES.

As a reminder, the IC50 is the point on the concentration scale where inhibition reaches its midpoint. A low value points to inhibition by little substance. With `COc1ccc(C(OCCN2CCCC(C(=O)O)C2)(c2ccc(C=O)cc2)c2ccc(OC)cc2)cc1` (racemic) [5 a, rac‐ 1‐{2‐[(4‐Formylphenyl)bis(4‐methoxyphenyl)methoxy]ethyl}piper‐idine‐3‐carboxylic acid], the IC50 in test [1] is 67.6 µM; in test [2] it was 10.5 µM; in test [3], 1.7 µM. For the same compound, the Ki in test [4] was 38.9 µM.
